From patent US20210267939A1, “COMPOSITIONS AND METHODS FOR TREATING NAFLD/NASH AND RELATED DISEASE PHENOTYPES” (priority 2018, published 2021)

Key:
Assay type in all cases: in vivo
[1] = system: Zucker fatty rats; test: 1 g/kg i.p. glucose tolerance test in treated Zucker fatty rats; conditions: ZFR, BT2 20 mg/kg i.p., day 6, 1 g/kg i.p. glucose, vs vehicle
Protocol: Individually housed, male 12 week-old Zucker fatty rats (ZFR, Charles River Laboratories) maintained on a custom control low fat (LF) diet (A11072001, Research Diets) were used for the BDK inhibition and PPM1K overexpression studies. For the BDK inhibition study, ZFR were administered the small molecule BDK inhibitor 3,6-dichlorobenzo[b]thiophene-2-carboxylic acid (BT2, Sigma) daily at a dose of 20 mg/kg dissolved in 200 ul of sterile dimethylsulfoxide by i.p. injection for 7 days. The control group was administered an equal volume of vehicle each day. […]
Plasma concentrations of the alpha-keto acids of leucine (α-keto-isocaproate, KIC), isoleucine (α-keto-β-methylvalerate, KMV) and valine (α-keto-isovalerate, KIV) were measured by LC-MS as previously described (Glynn et al., 2015; White et al., 2016). Other plasma analytes were measured on a Beckman DxC600 autoanalyzer, using reagents for lactate, total cholesterol, and triglycerides from Beckman, and non-esterified fatty acids (NEFA) and ketones (total and 3-hydroxybutyrate) from Wako (Richmond, Va.). Glycerol was measured using reagents from TG-B by Roche Diagnostics (Indianapolis, Ind.). Liver triglycerides were quantified using the triglyceride quantification kit from Abcam. Plasma insulin concentrations were measured with a Millipore EMD Rat insulin ELISA kit.

[2] = system: Zucker fatty rats; test: Indirect calorimetry in BT2-treated Zucker fatty rats; conditions: ZFR, BT2 20 mg/kg i.p., day 6, hours following administration
Protocol: Individually housed, male 12 week-old Zucker fatty rats (ZFR, Charles River Laboratories) maintained on a custom control low fat (LF) diet (A11072001, Research Diets) were used for the BDK inhibition and PPM1K overexpression studies. For the BDK inhibition study, ZFR were administered the small molecule BDK inhibitor 3,6-dichlorobenzo[b]thiophene-2-carboxylic acid (BT2, Sigma) daily at a dose of 20 mg/kg dissolved in 200 ul of sterile dimethylsulfoxide by i.p. injection for 7 days. The control group was administered an equal volume of vehicle each day. On day 6, following an overnight fast, ZFR were subjected to a 1 g/kg i.p. glucose tolerance test (GTT) precisely 1 hr after administration of BT2 (20 mg/kg i.p.) or vehicle. The glucose tolerance test was performed as described (White, et al., 2016). Following the GTT, rats were returned to their normal cages and provided free access to food and water. Indirect calorimetry was performed in a second cohort of BT2 treated rats on day 6 of BT2 administration. Here ad-libitum fed rats were injected with BT2 (20 mg/kg i.p.) or vehicle immediately prior to being placed in an eight-chamber Oxymax system (Columbus Instruments) for seven hours. During their time in the metabolic cages all rats had free access to food and water. […]

[3] = system: site-specific phosphorylation changes in liver samples; test: Phospho-proteomics of liver from treated Zucker fatty rats; conditions: BT2 vs vehicle ZFR
Protocol: Phosphoproteomics: Large-scale measurements of phosphorylation changes in response to BT2 and PPM1K were performed. Briefly, protein from livers of ZFR treated with BT2 or DMSO, or with Ad-CMV-PPM1K or Ad-CMV-GFP, were solubilized, digested with LysC and trypsin, labeled with TMT-6plex reagents, and mixed in batches of six to enable two direct comparisons: 1) BT2 vs. DMSO (n=3), 2) PPM1K vs. GFP (n=3). Phosphopeptides were enriched from the majority of each mixture using immobilized metal affinity chromatography (IMAC), and a small portion of the input material was retained for assessment of relative protein abundance. Both phosphopeptide and input fractions were subjected to nanoLC-MS/MS using a nano-Acquity UPLC system (Waters) coupled to a Q Exactive Plus Hybrid Quadrupole-Orbitrap mass spectrometer (Thermo Fischer Scientific). Raw LC-MS/MS data were processed in Proteome Discoverer v2.1 (PD2.1, Thermo Fisher Scientific) and subsequent statistical analysis was performed in Microsoft EXCEL. […] (PD2.2, Thermo Fisher Scientific). Phosphosite motif analysis and logo generation was performed in PhosphoSitePlus® by submitting pre-aligned 15 amino acid sequences for all modulated phosphopeptides from each study into the motif and logo analysis tools (Hornbeck et al., 2015).
Tissue lysis and protein digestion for proteomics: Approximately 50 mg of pulverized liver tissue power from each rat (3 BT2- and 3 DMSO-treated animals; 3 PPM1K- and 3 GFP-overexpressing animals) was re-suspended in 400 μL of ice-cold 8M Urea Lysis Buffer (8 M urea in 50 mM Tris, pH 8.0, 40 mM NaCl, 2 mM MgCl2, 1 mM Na3VO4, 10 mM Na4P2O7, 50 mM NaF, supplemented with protease inhibitor (1× cOmplete mini EDTA-free) and phosphatase inhibitor (1× PhosStop) tablets). […] Protein concentration was determined by BCA, and equal amounts of protein (500 μg, adjusted to 2.5 mg/mL with Urea Lysis Buffer) from each sample was reduced with 5 mM DTT at 37° C. for 30 min, cooled to RT, alkylated with 15 mM iodoacetamide for 30 min in the dark and unreacted iodoacetamide quenched by the addition of DTT up to 15 mM. […]

## O=C(O)c1sc2cc(Cl)ccc2c1Cl [BT2, 3,6-dichlorobenzo[b]thiophene-2-carboxylic acid]
[1]
  glucose excursion during ipGTT: significantly smaller
  insulin excursion during ipGTT: significantly smaller
[2]
  respiratory exchange ratio (RER): lowered
[3]
  phosphorylation of serine 25, serine 29 and serine79 of acetyl-coA carboxylase 1 (ACC1), phospho-proteomics: less phosphorylated
  phosphosite serine 454 of ATP-citrate lyase (ACL), phospho-proteomics: significantly downregulated
[3]; p=0.054
  Log2 fold change in phosphorylation of serine 293 (serine 333) of BCKDH e1a, phospho-proteomics: −0.68
